Reference: patent US20210267201A1, “HERBICIDAL MIXTURES COMPRISING ISOXAFLUTOLE, DIMETHENAMID OR DIMETHENAMID-P AND AN IMIDAZOLINONE HERBICIDE; AND THEIR USE IN SOYBEAN AND COTTON CULTURES” (BASF SE, priority 2018, published 2021)

Tested on: AVEFA (Avena fatua, wild oat)
Test: greenhouse experiment: herbicidal action, scale from 0 to 100, synergism by Colby's equation
Format: in vivo
Details: scale 0 to 100, test period 20 days
Experimental: However, the weed control afforded by the compounds, mixtures or compositions is not limited to these species. The analysis of synergism or antagonism between the mixtures or compositions is determined using Colby's equation.
Synergism can be described as an interaction where the combined effect of two or more compounds is greater than the sum of the individual effects of each of the compounds. The presence of a synergistic effect in terms of percent control, between two mixing partners (X and Y) can be calculated using the Colby equation (Colby, S. R., 1967, Calculating Synergistic and Antagonistic Responses in Herbicide Combinations, Weeds, 15, 21-22):
When the observed combined control effect is greater than the expected (calculated) combined control effect (E), then the combined effect is synergistic.
The culture containers used were plastic flowerpots containing loamy sand with approximately 3.0% of humus as the substrate. The seeds of the test plants were sown separately for each species. For pre-emergence treatment, the active ingredients, which had been suspended or emulsified in water, were applied directly after sowing by means of finely distributing nozzles. […] During this time, the plants were tended, and their response to the individual treatments was evaluated. […]

CS(=O)(=O)c1cc(C(F)(F)F)ccc1C(=O)c1cnoc1C1CC1 [Isoxaflutole, isoxaflutole]
Herbicidal action against AVEFA, Found (Isoxaflutole 12.5 g/ha alone): 0 | Herbicidal action against AVEFA, Found (Isoxaflutole 25 g/ha alone): 0
